Assay results: article PMC8861050, “Design, synthesis and evaluation of novel 2-oxoindoline-based acetohydrazides as antitumor agents” (Scientific Reports, 2022)

How the values were obtained:
SW620 (colon cancer) = experiment: SRB cytotoxicity assay, SW620; type: cell-based; settings: Homo sapiens, SW-620, 48 h incubation, mean ± SEM of 3 independent experiments
Excerpt: (§1) Three human cancer cell lines: colon cancer (SW620), prostate cancer (PC3), and lung cancer (NCI-H23) were used for sceening the cytotoxicity of the compounds. The cancer cells were purchased from American Type Culture Collection (Manassas, VA, USA). Other reagents/media for cell culture were obtained from GIBCO (Grand Island, New York, USA). The testing cancer cells were culture in Dulbecco’s Modified Eagle Medium until confluence. Then, they were trypsinized and suspended at the level of 3 × 10^4 cells/mL of cell culture medium. On day 0, cancer cells were seeded at a volume of 180 µL/well of 96-well plates and incubated for 24 h at 37 °C in a 5% CO2 incubator. On day 1, 20 µL of various concentrations of testing compounds were added to each well of the 96-well plates. Chemicals were dissolved in dimethyl sulfoxide (DMSO, stock) and diluted in culture medium (1% DMSO) before adding to the culture. After 48 h incubation, the sulforhodamine B assay was used for cell density determination with slight modifications[22]–[26]. The Probits were used for the calculation of IC50 values. The reported IC50 were the averages of three independent screening (SD ≤ 10%)[27].
(§2) Two series of compounds synthesized (4a–p and 5a–f) were evaluated for their cytotoxicity against three human cancer cell lines, including SW620 (colon cancer), PC3 (prostate cancer), NCI-H23 (lung cancer), using SRB method as described previously[22] with slight modifications[23]–[26].

PC3 (prostate cancer) = experiment: SRB cytotoxicity assay, PC3; type: cell-based; settings: Homo sapiens, 48 h incubation, mean ± SEM of 3 independent experiments
Excerpt: as §1, §2

NCI-H23 (lung cancer) = experiment: SRB cytotoxicity assay, NCI-H23; type: cell-based; settings: Homo sapiens, 48 h incubation, mean ± SEM of 3 independent experiments
Excerpt: as §1, §2

[1] = Cytotoxicity on normal mesenchymal stem cells; type: cell-based; settings: human bone marrow-derived mesenchymal stem cells; mean ± SEM; read-out: Cytotoxicity (IC50) MSCs
Protocol: Overally, 5-fluorinated compounds (4i–p and 5d–f) were slightly more cytotoxic than non-fluorinated ones (4a–h, 5a–c). For compounds in series 4a–p, it was observed that, electron-releasing substituents (–OCH3, OH) were generally better than electron-withdrawing groups (–Cl) for cytotoxicity. Especially, compounds with 2-OH substituents produced the best cytotoxicity. The addition of either 4-OCH3 or 3-allyl groups further enhanced cytotoxicity of the related compounds (4g, 4h and 4o, 4p).

SMILES | IC50 (SW620 (colon cancer)) [µM] | IC50 (PC3 (prostate cancer)) [µM] | melting point [°C] | IC50 (NCI-H23 (lung cancer)) [µM] | IC50 [1] [µM]
O=C(CN1C(=O)Cc2ccccc21)N/N=C/c1ccccc1 [Compound 4a, (E)-N'-Benzylidene-2-(2-oxoindolin-1-yl)acetohydrazide] | 10.1 ± 0.91 | 12.2 ± 0.99 | 167 to 168 | 10.4 ± 0.87 | > 30
O=C(CN1C(=O)Cc2ccccc21)N/N=C/c1ccccc1Cl [Compound 4b, (E)-N'-(2-Chlorobenzylidene)-2-(2-oxoindolin-1-yl)acetohydrazide] | 9.91 ± 0.76 | 8.72 ± 0.71 | 179 to 181 | 8.34 ± 0.52 | > 30
O=C(CN1C(=O)Cc2ccccc21)N/N=C/c1cccc(Cl)c1 [Compound 4c, (E)-N'-(3-Chlorobenzylidene)-2-(2-oxoindolin-1-yl)acetohydrazide] | 15.3 ± 1.01 | 14.2 ± 1 | 181 to 182 | 13.5 ± 1.11 | > 30
O=C(CN1C(=O)Cc2ccccc21)N/N=C/c1ccc(Cl)cc1 [Compound 4d, (E)-N'-(4-Chlorobenzylidene)-2-(2-oxoindolin-1-yl)acetohydrazide] | 16.3 ± 1.21 | 17.4 ± 1.34 | 185 to 187 | 15.6 ± 1.43 | > 30
COc1ccc(/C=N/NC(=O)CN2C(=O)Cc3ccccc32)cc1 [Compound 4e, (E)-N'-(4-Methoxybenzylidene)-2-(2-oxoindolin-1-yl)acetohydrazide] | 9.01 ± 0.74 | 7.43 ± 0.45 | 168 to 169 | 8.72 ± 0.33 | > 30
COc1ccc(/C=N/NC(=O)CN2C(=O)Cc3ccccc32)c(O)c1 [Compound 4g, (E)-N'-(2-Hydroxy-4-methoxybenzylidene)-2-(2-oxoindolin-1-yl)acetohydrazide] | 3.34 ± 0.31 | 4.32 ± 0.34 | 177 to 178 | 2.59 ± 0.21 | 15.5 ± 0.64
O=C(CN1C(=O)Cc2cc(F)ccc21)N/N=C/c1ccccc1 [Compound 4i, (E)-N'-Benzylidene-2-(5-fluoro-2-oxoindolin-1-yl)acetohydrazide] | 9.54 ± 0.74 | 8.56 ± 0.52 | 173 to 174 | 8.44 ± 0.67 | > 30
O=C(CN1C(=O)Cc2cc(F)ccc21)N/N=C/c1ccccc1Cl [Compound 4j, (E)-N'-(2-Chlorobenzylidene)-2-(5-fluoro-2-oxoindolin-1-yl)acetohydrazide] | 7.56 ± 0.57 | 8.43 ± 0.59 | 185 to 186 | 8 ± 0.98 | > 30
O=C(CN1C(=O)Cc2cc(F)ccc21)N/N=C/c1cccc(Cl)c1 [Compound 4k, (E)-N'-(3-Chlorobenzylidene)-2-(5-fluoro-2-oxoindolin-1-yl)acetohydrazide] | 16.4 ± 1.19 | 16.4 ± 1.56 | 187 to 188 | 17.4 ± 1.54 | > 30
O=C(CN1C(=O)Cc2cc(F)ccc21)N/N=C/c1ccc(Cl)cc1 [Compound 4l, (E)-N'-(4-Chlorobenzylidene)-2-(5-fluoro-2-oxoindolin-1-yl)acetohydrazide] | 14.3 ± 1.21 | 17.8 ± 1.58 | 191 to 192 | 16.4 ± 1.77 | > 30
COc1ccc(/C=N/NC(=O)CN2C(=O)Cc3cc(F)ccc32)cc1 [Compound 4m, (E)-N'-(4-Methoxybenzylidene)-2-(5-fluoro-2-oxoindolin-1-yl)acetohydrazide] | 7.52 ± 0.63 | 7.33 ± 0.42 | 175 to 176 | 7.43 ± 0.56 | > 30
O=C(CN1C(=O)Cc2ccccc21)N/N=C1\C(=O)Nc2ccccc21 [Compound 5a, (Z)-2-(2-Oxoindolin-1-yl)-N'-(2-oxoindolin-3-ylidene)acetohydrazide] | 16.4 ± 1.05 | 14.3 ± 1.21 | 191 to 192 | 15.3 ± 1.32 | > 30
O=C(CN1C(=O)Cc2ccccc21)N/N=C1\C(=O)Nc2ccc(Cl)cc21 [Compound 5b, (Z)-N'-(5-Chloro-2-oxoindolin-3-ylidene)-2-(2-oxoindolin-1-yl)acetohydrazide] | 17.4 ± 1.43 | 18.4 ± 1.53 | 201 to 202 | 16.5 ± 1.33 | > 30
Cc1ccc2c(c1)/C(=N/NC(=O)CN1C(=O)Cc3ccccc31)C(=O)N2 [Compound 5c, (Z)-N'-(5-Methyl-2-oxoindolin-3-ylidene)-2-(2-oxoindolin-1-yl)acetohydrazide] | 17.6 ± 1.32 | 19.6 ± 2.01 | 198 to 199 | 18.4 ± 1.87 | > 30
O=C(CN1C(=O)Cc2cc(F)ccc21)N/N=C1\C(=O)Nc2ccccc21 [Compound 5d, (Z)-2-(5-Fluoro-2-oxoindolin-1-yl)-N'-(2-oxoindolin-3-ylidene)acetohydrazide] | 12.4 ± 1.21 | 14.6 ± 1.27 | 215 to 216 | 13.6 ± 1.31 | > 30
O=C(CN1C(=O)Cc2cc(F)ccc21)N/N=C1\C(=O)Nc2ccc(Cl)cc21 [Compound 5e, (Z)-N'-(5-Chloro-2-oxoindolin-3-ylidene)-2-(5-fluoro-2-oxoindolin-1-yl)acetohydrazide] | 15.3 ± 1.5 | 14.7 ± 1.71 | 221 to 222 | 15.5 ± 1.36 | > 30
Cc1ccc2c(c1)/C(=N/NC(=O)CN1C(=O)Cc3cc(F)ccc31)C(=O)N2 [Compound 5f, (Z)-2-(5-Fluoro-2-oxoindolin-1-yl)-N'-(5-methyl-2-oxoindolin-3-ylidene)acetohydrazide] | 12.7 ± 1.22 | 15.3 ± 1.7 | 217 to 218 | 14.9 ± 1.83 | > 30
